Data: paper PMC10818931, “In Vitro Evaluation of Drug–Drug Interaction Potential of Epetraborole, a Novel Bacterial Leucyl-tRNA Synthetase Inhibitor” (Pharmaceuticals, 2024)
Like-named read-outs stand apart in the source and are kept apart here.

Experiments:
[1] = tested on: HEK 293 or MDCK cell lines; test: Cytotoxicity in transporter inhibition studies; assay type: cell-based; details: at the concentrations tested in transporter inhibition studies
[2] = molecular target: T1, OCT1 (Homo sapiens, UniProt O15245); test: Uptake transporter inhibition in transfected HEK 293 or MDCK cells; assay type: in vitro ADME
T1 construct: expressed in transfected cells; host or cells: HEK 293 or MDCK
Procedure: (§1) Cell monolayers were preincubated (37 °C) for 15 to 30 min in a transport medium containing the target concentration of EBO or a specific inhibitor without substrate. Following the removal of preincubation solutions, appropriate working solutions containing EBO at the target concentration plus the probe substrate were added to the wells in triplicate. Separate sets of triplicate wells were designated for probe substrate only and probe substrate plus the specific inhibitors, to determine the maximal uptake rate and maximal inhibition of uptake, respectively. After incubation at 37 °C for each transporter, the working solution was removed from each well and the experiment was stopped by washing three times with cold (4 °C) DPBS. Depending on the substrate label, cells were either lysed for the analysis of total radioactivity (liquid scintillation counter) or LC-MS/MS methods. For measuring relative fluorescence (FLUOstar Galaxy, Cary, NC, USA), cells were not lysed.

[3] = molecular target: T2, OATP1B1 (Homo sapiens, UniProt Q9Y6L6); test: as above; assay type: in vitro ADME
T2 construct: host or cells: MDCK
T2 sequence (Q9Y6L6 1-691): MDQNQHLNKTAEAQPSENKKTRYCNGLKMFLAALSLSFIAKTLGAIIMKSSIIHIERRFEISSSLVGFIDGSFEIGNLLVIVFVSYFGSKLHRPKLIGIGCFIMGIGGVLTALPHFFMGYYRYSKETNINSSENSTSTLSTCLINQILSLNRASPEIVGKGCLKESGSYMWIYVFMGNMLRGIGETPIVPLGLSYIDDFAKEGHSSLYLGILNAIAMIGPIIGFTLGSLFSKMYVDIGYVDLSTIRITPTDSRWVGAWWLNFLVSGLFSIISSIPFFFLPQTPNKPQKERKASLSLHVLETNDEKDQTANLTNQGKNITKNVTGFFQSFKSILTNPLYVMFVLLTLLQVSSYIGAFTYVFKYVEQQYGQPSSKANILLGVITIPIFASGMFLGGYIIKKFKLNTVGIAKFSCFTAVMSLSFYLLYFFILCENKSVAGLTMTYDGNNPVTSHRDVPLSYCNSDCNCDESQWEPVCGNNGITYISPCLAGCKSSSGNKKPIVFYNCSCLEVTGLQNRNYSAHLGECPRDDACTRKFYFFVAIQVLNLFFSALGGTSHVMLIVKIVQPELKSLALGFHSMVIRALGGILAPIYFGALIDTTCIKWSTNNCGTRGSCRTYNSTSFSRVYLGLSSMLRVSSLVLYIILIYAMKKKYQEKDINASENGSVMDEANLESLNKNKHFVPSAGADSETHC
Procedure: as §1

[4] = cited from earlier work
[5] = tested on: CYP2B6; test: CYP mRNA induction in plated human hepatocytes (qPCR); details: for Apparent Emax: CYP2B6 mRNA, EBO 0.3–100 µM, M3 1–250 µM
Procedure: (§2) The induction potential of EBO and M3 on CYP1A2, CYP2B6, and 3A4 was evaluated by incubating the test articles with plated human hepatocytes from 3 individual donors (GKJ, ZEY, WKF) in triplicate according to WuXi AppTec (Cranbury, NJ, USA) SOP.
(§3) At the end of incubation, the RNA of human hepatocytes was isolated and the mRNA expression levels of CYP 1A2, 2B6, and 3A4 were evaluated by using real-time polymerase chain reaction (qPCR) after being reverse-transcribed (RT) to cDNA following manufacturer’s instruction (thermos Fisher Scientific (Waltham, MA, USA). On the last dosing day with EBO or M3, incubation samples were extracted in triplicate by the addition of ice-cold quench solutions at 0, 0.5, 1, 2, 4, 6, and 24 h after dosing and the extracted samples were analyzed using LC-MS/MS to determine the EBO or M3 concentration in each sample.

[6] = tested on: CYP1A2; test: as above; details: for Apparent Emax: CYP1A2 mRNA, EBO 0.3–100 µM, M3 1–250 µM
Procedure: as §2, §3

[7] = molecular target: T3, BCRP (Homo sapiens, UniProt Q9UNQ0); test: Substrate potential for BCRP, bidirectional permeability in BCRP-MDCK; assay type: in vitro ADME; details: for Concentration in the receiver compartment: 5 µM, BCRP-MDCK and MDCK cells, A to B and B to A, Papp and efflux ratio could not be calculated; for as a Substrate: BCRP
T3 construct: host or cells: MDCK (BCRP-MDCK)
T3 sequence (Q9UNQ0 1-655): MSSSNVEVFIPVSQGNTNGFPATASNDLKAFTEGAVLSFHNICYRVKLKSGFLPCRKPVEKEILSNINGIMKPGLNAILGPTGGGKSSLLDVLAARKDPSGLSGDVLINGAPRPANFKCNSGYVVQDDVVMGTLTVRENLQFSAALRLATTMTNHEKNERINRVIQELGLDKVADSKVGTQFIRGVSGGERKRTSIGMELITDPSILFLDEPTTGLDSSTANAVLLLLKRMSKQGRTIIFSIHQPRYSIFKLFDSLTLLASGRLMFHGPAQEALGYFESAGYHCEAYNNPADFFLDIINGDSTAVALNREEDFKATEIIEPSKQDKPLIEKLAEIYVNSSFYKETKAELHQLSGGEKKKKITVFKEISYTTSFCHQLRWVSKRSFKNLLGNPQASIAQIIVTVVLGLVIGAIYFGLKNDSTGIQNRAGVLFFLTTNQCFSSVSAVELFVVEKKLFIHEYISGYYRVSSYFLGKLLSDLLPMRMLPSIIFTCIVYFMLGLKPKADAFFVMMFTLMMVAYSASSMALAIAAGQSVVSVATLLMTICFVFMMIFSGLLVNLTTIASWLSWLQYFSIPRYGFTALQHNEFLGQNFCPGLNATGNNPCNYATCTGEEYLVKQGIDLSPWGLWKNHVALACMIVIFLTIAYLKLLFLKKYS

[8] = tested on: human hepatocytes; test: Cytotoxicity in hepatocytes; details: EBO at 100 µM, M3 at 250 µM
Procedure: as §2

[9] = EBO 500 mg PO q24h, healthy subjects, Study EBO-101, printed with "(unbound fraction)", read-out: Steady-state systemic total Cmax
[10] = read-out: as an Inhibitor, IC50
[11] = human study of radiolabeled EBO

T1 sequence (O15245 whole entry): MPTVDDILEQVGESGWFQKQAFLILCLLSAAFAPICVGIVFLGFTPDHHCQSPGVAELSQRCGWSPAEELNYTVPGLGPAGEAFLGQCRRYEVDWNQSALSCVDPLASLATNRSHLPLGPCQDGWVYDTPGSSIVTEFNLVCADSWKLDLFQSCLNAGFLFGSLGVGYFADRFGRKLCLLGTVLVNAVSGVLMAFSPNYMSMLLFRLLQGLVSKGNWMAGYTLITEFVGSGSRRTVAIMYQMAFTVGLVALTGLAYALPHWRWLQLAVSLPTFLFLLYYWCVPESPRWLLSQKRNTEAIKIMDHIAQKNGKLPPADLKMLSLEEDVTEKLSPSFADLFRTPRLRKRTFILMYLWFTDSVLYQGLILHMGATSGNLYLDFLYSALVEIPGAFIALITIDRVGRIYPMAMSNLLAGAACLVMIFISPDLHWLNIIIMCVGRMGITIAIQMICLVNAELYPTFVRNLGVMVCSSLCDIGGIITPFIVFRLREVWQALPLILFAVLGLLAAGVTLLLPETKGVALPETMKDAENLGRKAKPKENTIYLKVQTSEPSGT

| Compound | Cytotoxicity [1] | Cmax [4, 9] | Apparent Emax ([5]; donor one) | Apparent Emax ([5]; donor three) | Apparent Emax ([5]; donor two) | Apparent Emax ([6]; donor one) | Apparent Emax ([6]; donor three) | Apparent Emax ([6]; donor two) | Concentration in the receiver compartment [7] | as a Substrate [7] | Cytotoxicity (>20%) [8] | also measured |
| --- | --- | --- | --- | --- | --- | --- | --- | --- | --- | --- | --- | --- |
| NC[C@H]1OB(O)c2c(OCCCO)cccc21 [EBO, Epetraborole] | Neither EBO nor M3 induced any cytotoxicity | 12 µM | <2 Fold | <2 Fold | >2.18 Fold | <2 Fold | <2 Fold | <2 Fold | below the lower limit of quantification | No | did not induce cytotoxicity (>20%) | inhibition at 1000 µM ([2]; human, HEK 293 or MDCK cells transfected with OCT1, probe metformin, metformin transport, at 1000 µM (maximum tested)): 59%; inhibition at 500 µM ([3]; human, HEK 293 or MDCK cells transfected with OATP1B1, at 500 µM): 25%; Cmax ([4]; 500 mg/day PO human clinical dose): 2850 ng/mL; CYP2B6 mRNA expression induction ([5]; at 100 µM, 1 out of 3 donors): 2.18 fold; Inducer of CYP2B6 (in words) ([5]; hepatocytes): weak inducer; EC50 at 2 days ([5]; human, plated human hepatocytes): > 100 µM; Inducer of CYP1A2 mRNA (in words) ([6]; hepatocytes): not an inducer |
| NC[C@H]1OB(O)c2c(OCCC(=O)O)cccc21 [M3] | Neither EBO nor M3 induced any cytotoxicity | 20 µM | <2 Fold | <2 Fold | <2 Fold | <2 Fold | <2 Fold | <2 Fold | below the lower limit of quantification | No | did not induce cytotoxicity (>20%) | IC50 [2, 10]: > 250 µM; IC50 [3, 10]: > 250 µM; Excretion (in words) [4, 11]: excreted predominantly in the urine; Further metabolism (in words) [4, 11]: not subject to further metabolism |
